“Also recorded” adds a separate entry of the source. Where two headings read alike, the source gives them in different places.

Assay [1] deals with T1, GST-PTP1B (Homo sapiens, UniProt P18031).
T1 sequence (P18031 1-435): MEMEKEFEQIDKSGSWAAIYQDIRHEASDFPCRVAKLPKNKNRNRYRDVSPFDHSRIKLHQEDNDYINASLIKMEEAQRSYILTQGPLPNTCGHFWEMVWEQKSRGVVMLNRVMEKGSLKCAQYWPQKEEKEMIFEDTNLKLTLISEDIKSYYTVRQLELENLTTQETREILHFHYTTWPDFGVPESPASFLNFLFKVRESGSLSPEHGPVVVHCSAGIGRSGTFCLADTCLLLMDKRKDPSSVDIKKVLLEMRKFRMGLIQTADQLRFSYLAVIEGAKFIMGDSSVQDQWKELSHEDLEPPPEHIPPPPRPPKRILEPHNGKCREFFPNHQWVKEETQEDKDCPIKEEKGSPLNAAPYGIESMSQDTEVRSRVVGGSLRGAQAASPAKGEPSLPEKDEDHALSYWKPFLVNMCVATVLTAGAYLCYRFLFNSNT
Kind of assay: Colorimetric pNPP assay of inhibition against PTP1B.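 For all read-outs here: colorimetric inhibition readout run in 96-well plates, with PTP1B and TCPTP both tested in the same assay format.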 It counts as biochemical. As to conditions: for IC50: means ± SD of three replications, pNPP substrate, pH 6.5, 30 °C; for TCPTP/PTP1B, the ratio of IC50 of TCPTP and PTP1B: selectivity over TCPTP.
Experimental: (§1) A colorimetric assay to measure inhibition against PTP1B and TCPTP was performed in 96-well plates. […] Briefly, the tested compounds were solubilized in DMSO and serially diluted into concentrations for the inhibitory test.

Assay [2] concerns the target T2, GST-TCPTP (Homo sapiens, UniProt P17706).
T2 sequence (P17706 1-415): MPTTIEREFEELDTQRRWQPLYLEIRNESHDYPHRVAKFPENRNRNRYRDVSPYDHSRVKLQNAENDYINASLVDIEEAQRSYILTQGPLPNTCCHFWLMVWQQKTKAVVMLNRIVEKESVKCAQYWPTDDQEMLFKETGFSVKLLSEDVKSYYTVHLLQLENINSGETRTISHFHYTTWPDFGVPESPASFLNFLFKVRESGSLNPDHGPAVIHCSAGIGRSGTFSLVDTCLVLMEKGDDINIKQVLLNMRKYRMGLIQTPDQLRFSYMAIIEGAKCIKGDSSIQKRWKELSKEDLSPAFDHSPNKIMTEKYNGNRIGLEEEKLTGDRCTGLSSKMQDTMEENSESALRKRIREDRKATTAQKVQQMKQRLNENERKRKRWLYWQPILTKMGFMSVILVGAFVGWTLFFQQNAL
As to the kind of experiment: Colorimetric pNPP assay of inhibition against TCPTP.
Experimental: as §1

The target of assay [3] is T3, PTP1B (Homo sapiens, UniProt P18031).
T3 sequence (P18031 1-435): T1 sequence (P18031 1-435)
Kind of assay: PTP1B enzyme kinetic study (Michaelis-Menten, Lineweaver-Burk plot). It counts as biochemical.

Setting [4] is: read-out: IC50 against PTP1B (Table 1).

In the case of `Cc1cccc(-c2cc(COc3ccc(/C=C/c4cccc(C(=O)O)c4)cc3)no2)c1` [Compound 24, (E)-3-(4-((5-(m-Tolyl)isoxazol-3-yl)methoxy)styryl)benzoic acid], the IC50 in assay [1] (read-out: IC50 PTP1B (Table 2)) is 3.68 ± 1.12 µM; in assay [2], 18.9 ± 1.18 µM. Also, the “TCPTP/PTP1B, the ratio of IC50 of TCPTP and PTP1B” value (shortened to “TCPTP/PTP1B, the ratio”) in assay [1] was 5.1.
For `O=C(O)c1cccc(/C=C/c2ccc(OCc3cc(-c4cccc(Br)c4)on3)cc2)c1` [Compound 23, (E)-3-(4-((5-(3-Bromophenyl)isoxazol-3-yl)methoxy)styryl)benzoic acid], the IC50 in assay [1] (read-out: IC50 PTP1B (Table 2)) is 9.85 ± 2.04 µM; in assay [2] it was above 40 µM.
As to `O=C(O)c1cccc(/C=C/c2ccc(OCc3cc(-c4ccccc4Cl)on3)cc2)c1` [Compound 19, (E)-3-(4-((5-(2-Chlorophenyl)isoxazol-3-yl)methoxy)styryl)benzoic acid], the IC50 in assay [1] (read-out: IC50 PTP1B (Table 2)) is 1.75 ± 0.82 µM; in assay [2] it was 36.2 ± 3.82 µM. Further, the “TCPTP/PTP1B, the ratio” value in assay [1] was 20.7.
On to `O=C(O)c1cccc(/C=C/c2ccc(OCc3conc3-c3ccccc3)cc2)c1` [Compound 15, (E)-3-(4-((3-Phenylisoxazol-4-yl)methoxy)styryl)benzoic Acid], for which the IC50 in assay [1] (setting [4]) was 20.7 ± 3.83 µM.
For `O=C(O)c1cccc(/C=C/c2ccc(OCc3cc(-c4cccc(F)c4)on3)cc2)c1` [Compound 22, (E)-3-(4-((5-(3-Fluorophenyl)isoxazol-3-yl)methoxy)styryl)benzoic acid], the IC50 in assay [1] (read-out: IC50 PTP1B (Table 2)) was above 20 µM; in assay [2], above 40 µM.
In the case of `O=C(O)c1cccc(/C=C/c2ccc(OCc3cc(-c4ccccc4)on3)cc2)c1` [Compound 18, (E)-3-(4-((5-Phenylisoxazol-3-yl)methoxy)styryl)benzoic acid], the IC50 in assay [1] (setting [4]) is 6.33 ± 1.02 µM; in assay [2], 9.58 ± 0.33 µM. Also, the “TCPTP/PTP1B, the ratio” value in assay [1] was determined as 1.5.
As to `COC(=O)c1cccc(/C=C/c2ccc(OCc3cc(-c4ccccc4)on3)cc2)c1` [Compound 18d], in assay [1] (setting [4]), the IC50 is 23.7 ± 3.62 µM.
For `O=C(O)c1cccc(/C=C/c2ccc(OCc3cc(-c4cccc(Cl)c4)on3)cc2)c1` [Compound 21, (E)-3-(4-((5-(3-Chlorophenyl)isoxazol-3-yl)methoxy)styryl)benzoic acid], the IC50 in assay [1] (read-out: IC50 PTP1B (Table 2)) came to 5.37 ± 1.53 µM; in assay [2] it was 7.58 ± 1.32 µM. Also, the “TCPTP/PTP1B, the ratio” value in assay [1] was determined as 1.4.
For `O=C(O)c1cccc(/C=C/c2ccc(OCc3cc(-c4ccc(F)c(F)c4)on3)cc2)c1` [Compound 30, (E)-3-(4-((5-(3,4-Difluorophenyl)isoxazol-3-yl)methoxy)styryl)benzoic acid], in that order: 1.22 ± 0.48 µM, 6.02 ± 1.13 µM and 4.9.
Regarding `COc1ccccc1-c1cc(COc2ccc(/C=C/c3cccc(C(=O)O)c3)cc2)no1` [Compound 20, (E)-3-(4-((5-(2-Methoxyphenyl)isoxazol-3-yl)methoxy)styryl)benzoic acid], the IC50 in assay [1] (read-out: IC50 PTP1B (Table 2)) is 7.66 ± 1.05 µM; in assay [2], above 40 µM.
Take `Cc1onc(-c2ccccc2)c1COc1ccc(/C=C/c2cccc(C(=O)O)c2)cc1` [Compound 17, (E)-3-(4-((5-Methyl-3-phenylisoxazol-4-yl)methoxy)styryl)benzoic acid]: in assay [1] (setting [4]), the IC50 was determined as 15.7 ± 2.15 µM.
The same measure, in the same setting: with `O=C(O)c1cccc(/C=C/c2ccc(OCc3cnoc3-c3ccccc3)cc2)c1` [Compound 16, (E)-3-(4-((5-Phenylisoxazol-4-yl)methoxy)styryl)benzoic acid] the figure was 16.2 ± 4.52 µM.
For `O=C(O)c1cccc(/C=C/c2ccc(OCc3cc(-c4cccc([N+](=O)[O-])c4)on3)cc2)c1` [Compound 25, (E)-3-(4-((5-(3-Nitrophenyl)isoxazol-3-yl)methoxy)styryl)benzoic acid], the IC50 stood at 2.05 ± 0.54 µM in assay [1] (read-out: IC50 PTP1B (Table 2)) and 13.2 ± 1.7 µM in assay [2]. The “PTP1B inhibitory activity, fold higher than compound 18” value in assay [1] (relative to compound 18) stood at 3 fold. Moreover, the “TCPTP/PTP1B, the ratio” value in assay [1] came out at 6.5.
With `COc1ccc(-c2cc(COc3ccc(/C=C/c4cccc(C(=O)O)c4)cc3)no2)cc1` [Compound 27, (E)-3-(4-((5-(4-Methoxyphenyl)isoxazol-3-yl)methoxy)styryl)benzoic acid], the IC50 in assay [1] (read-out: IC50 PTP1B (Table 2)) was 2.23 ± 0.51 µM; in assay [2], 8.02 ± 0.99 µM. Also, the “TCPTP/PTP1B, the ratio” value in assay [1] is 3.6.
Take `C[C@H](CCC(=O)O)[C@H]1CC[C@H]2[C@@H]3CC[C@@H]4C[C@H](O)CC[C@]4(C)[C@H]3CC[C@]12C` [Lithocholic acid, lithocholic acid, reference compound]: the IC50 is 12.5 ± 2.51 µM in assay [1] (read-out: IC50 PTP1B (Table 2)) and 20.9 ± 3.66 µM in assay [2]. In assay [1], the “TCPTP/PTP1B, the ratio” value is listed as 1.7.
For the molecule `O=C(O)c1cccc(/C=C/c2ccc(OCc3cc(-c4ccc(F)cc4)on3)cc2)c1` [Compound 28, (E)-3-(4-((5-(4-Fluorophenyl)isoxazol-3-yl)methoxy)styryl)benzoic acid], the IC50 in assay [1] (read-out: IC50 PTP1B (Table 2)) amounted to 3.34 ± 0.81 µM; in assay [2] it was 5.19 ± 0.31 µM. For the same molecule, the “TCPTP/PTP1B, the ratio” value in assay [1] came out at 1.6.
Consider `Cc1ccc(-c2cc(COc3ccc(/C=C/c4cccc(C(=O)O)c4)cc3)no2)cc1` [Compound 26, (E)-3-(4-((5-(p-Tolyl)isoxazol-3-yl)methoxy)styryl)benzoic acid], for which the half-maximal inhibitory concentration (IC50) in assay [1] (read-out: IC50 PTP1B (Table 2)) is 3.56 ± 0.28 µM; in assay [2] it was 7.67 ± 0.35 µM. In addition, the “TCPTP/PTP1B, the ratio” value in assay [1] was 2.2.
`O=C(O)c1cccc(/C=C/c2ccc(OCc3cc(-c4ccc(Cl)c(Cl)c4)on3)cc2)c1` [Compound 29, (E)-3-(4-((5-(3,4-Dichlorophenyl)isoxazol-3-yl)methoxy)styryl)benzoic acid]: the half-inhibitory concentration (IC50) was 0.91 ± 0.33 µM in assay [1] (read-out: IC50 PTP1B (Table 2)) and 3.78 ± 0.22 µM in assay [2]. Further, the “TCPTP/PTP1B, the ratio” value in assay [1] came to 4.2. The Ki in assay [3] (30 nM PTP1B, pNPP up to 80 mM, pH 6.5, read-out: inhibitory constant Ki) was 0.78 µM. Also, in assay [3] (Vmax constant, Km increased with compound concentration), the “mode of inhibition of PTP1B” value was “competitive PTP1B inhibitor; also recorded: competitive inhibition”.

The values are drawn from article PMC6274251, “Design, Synthesis and Biological Evaluation of Stilbene Derivatives as Novel Inhibitors of Protein Tyrosine Phosphatase 1B” (Molecules, 2016).
